Where only a bound is given, the exact number is not on record here.

In the first experiment the target is T1, Rhesus PDE2A3 (Macaca mulatta, UniProt B3VTJ2).
T1 construct: made in house; host or cells: AD293 cells, transient transfection, pcDNA3.3-TOPO; lysate supernatant used as enzyme
T1 sequence (B3VTJ2 1-941): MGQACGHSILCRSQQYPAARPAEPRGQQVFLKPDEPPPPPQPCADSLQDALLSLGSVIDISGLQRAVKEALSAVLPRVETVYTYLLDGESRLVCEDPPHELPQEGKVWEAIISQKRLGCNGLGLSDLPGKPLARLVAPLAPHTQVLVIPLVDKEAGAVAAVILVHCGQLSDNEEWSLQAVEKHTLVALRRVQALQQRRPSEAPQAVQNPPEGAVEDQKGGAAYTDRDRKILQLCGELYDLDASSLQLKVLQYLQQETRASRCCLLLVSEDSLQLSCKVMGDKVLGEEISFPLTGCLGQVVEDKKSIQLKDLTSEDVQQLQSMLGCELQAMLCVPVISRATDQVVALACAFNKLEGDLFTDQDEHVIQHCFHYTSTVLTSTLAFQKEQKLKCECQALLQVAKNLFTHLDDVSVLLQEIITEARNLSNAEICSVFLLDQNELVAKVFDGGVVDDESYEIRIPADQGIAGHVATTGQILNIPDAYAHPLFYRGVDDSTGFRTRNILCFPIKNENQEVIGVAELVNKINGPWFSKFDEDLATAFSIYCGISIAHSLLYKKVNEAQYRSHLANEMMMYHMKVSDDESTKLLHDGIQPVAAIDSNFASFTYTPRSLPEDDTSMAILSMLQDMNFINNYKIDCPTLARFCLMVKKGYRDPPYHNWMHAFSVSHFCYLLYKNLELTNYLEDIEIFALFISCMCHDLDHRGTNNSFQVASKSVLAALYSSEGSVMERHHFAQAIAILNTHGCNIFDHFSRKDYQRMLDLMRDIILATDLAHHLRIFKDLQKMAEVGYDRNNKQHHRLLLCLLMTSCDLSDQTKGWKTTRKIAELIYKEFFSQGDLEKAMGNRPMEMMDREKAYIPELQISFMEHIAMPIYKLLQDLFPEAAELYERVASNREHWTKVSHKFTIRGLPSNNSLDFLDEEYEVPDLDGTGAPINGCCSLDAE
In words: PDE2 fluorescence polarization (IMAP FP) inhibition assay, rhesus enzyme. The experiment is classed as biochemical, rhesus macaque. The settings on record: Lab A; read-out: Rhesus PDE2 Ki (nM) Lab A. As to the method: The activity of the compounds in accordance with the present invention as PDE2 inhibitors may be readily determined using a fluorescence polarization (FP) methodology (Huang, W., et al., J. Biomol Screen, 2002, 7: 215).
In a typical experiment the PDE2 inhibitory activity of the compounds of the present invention was determined in accordance with the following experimental method. Rhesus PDE2A3 was amplified from rhesus macaque brain cDNA (Biochain Institute, Hayward, Calif.) using primers based on human PDE2A sequence (accession NM_002599.3) where the forward primer containing a Kozak consensus was 5′-[…]-3′ and the reverse primer was 5′-[…]-3′. Amplification with Easy-A High-Fidelity PCR cloning enzyme (Stratagene, La Jolla, Calif.) was 95° C. for 2 minutes followed by thirty three cycles of 95° C. for 40 seconds, 52° C. for 30 seconds, and 72° C. for 2 minutes 48 seconds. Final extension was 72° C. for 7 minutes. The PCR product was TA cloned into pcDNA3.3-TOPO (Invitrogen, Carlsbad, Calif.) according to standard protocol. A consensus sequence was developed from multiple clones and then deposited into GenBank (EU812167). AD293 cells (Stratagene, La Jolla, Calif.) with 70-80% confluency were transiently transfected with rhesus PDE2A3/pcDNA3.3-TOPO using Lipofectamine 2000 according to manufacturer specifications (Invitrogen, Carlsbad, Calif.). Cells were harvested 48 hours post-transfection and lysed by sonication (setting 3, 10×5 sec pulses) in a buffer containing 20 mM HEPES pH 7.4, 1 mM EDTA and Complete Protease Inhibitor Cocktail Tablets (Roche, Indianapolis, Ind.). Lysate was collected by centrifugation at 75,000×g for 20 minutes at 4° C. and supernatant utilized for evaluation of PDE2 activity. The fluorescence polarization assay for cyclic nucleotide phosphodiesterases was performed using an IMAP® FP kit supplied by Molecular Devices, Sunnyvale, Calif. (product # R8139). […] Assays were performed at room temperature in 384-well microtiter plates with an incubation volume of 20.2 μL. Solutions of test compounds were prepared in DMSO and serially diluted with DMSO to yield 8 μL of each of 10 solutions differing by 3-fold in concentration, at 32 serial dilutions per plate. […] 0% of inhibition is determined by using DMSO (1% final concentrations).
A Labcyte Echo 555 (Labcyte, Sunnyvale, Calif.) is used to dispense 200 nL from each well of the titration plate to the 384 well assay plate. Ten microliters of a solution of enzyme (1/2000 final dilution from aliquots; sufficient to produce 20% substrate conversion) was added to the assay plate. Next 10 uL of a separate solution of the substrate FAM-labeled cAMP (50 nM final concentration product # R7506 from Molecular Devices) and the activator cGMP (1 uM final concentration), prepared in the assay buffer (10 mM Tris HCl, pH 7.2, 10 mM MgCl2, 0.05% NaN3 0.01% Tween-20, and 1 mM DTT) was added to the assay plate and shaken to mix. The reaction is allowed to proceed at room temperature for 60 minutes. A binding solution is then made from the kit components, comprised of 80% Solution A, 20% Solution B and binding reagent at a volume of 1/600 the total binding solution. The enzymatic reaction is stopped by addition of 60 μl, of the binding solution to each well of the assay plates and the plates are sealed and shaken for 30 seconds. The plate was incubated at room temperature for at least one hour prior to determining the fluorescence polarization (FP). The parallel and perpendicular fluorescence of each well of the plate was measured using a Tecan Genios Pro plate reader (Tecan, Switzerland) or Perkin Elmer EnVision™ plate reader (Waltham, Mass.). Fluorescence polarization (mP) was calculated from the parallel (S) and perpendicular (P) fluorescence of each sample well and the analogous values for the median control well, containing only substrate (So and Po), using the following equation: Polarization (mP)=1000*(S/So−P/Po)/(S/So+P/Po).
`CCc1ccc(C(C)n2cc(-c3cc(=O)[nH]c(C)n3)cn2)c(Cl)c1` (single isomer, unassigned) [Example 100, (S)- or (R)-6-(1-(1-(2-chloro-4-ethylphenyl)ethyl)-1H-pyrazol-4-yl)-2-methylpyrimidin-4(3H)-one]: the Ki came out at 384 nM. Same read-out and setting: the same measure for `Cc1nc(-c2cnn(C(C)c3ccc(C4CC4)cc3F)c2)cc(=O)[nH]1` (single isomer, unassigned) [Example 92, (S)- or (R)-6-(1-(1-(4-cyclopropyl-2-fluorophenyl)ethyl)-1H-pyrazol-4-yl)-2-methylpyrimidin-4(3H)-one]: 212 nM; for `Cc1nc(-c2cnn(C(C)c3ccc(C(F)(F)F)cc3C(F)(F)F)c2)cc(=O)[nH]1` (single isomer, unassigned) [Example 144, (R)- or (S)-6-(1-(1-(2,4-bis(trifluoromethyl)phenyl)ethyl)-1H-pyrazol-4-yl)-2-methylpyrimidin-4(3H)-one]: 397 nM; for `Cc1ccc(C(C)n2cc(-c3cc(=O)[nH]c(C)n3)cn2)c(F)c1` (single isomer, unassigned) [Example 151, (S)- or (R)-6-(1-(1-(2-fluoro-4-methylphenyl)ethyl)-1H-pyrazol-4-yl)-2-methylpyrimidin-4(3H)-one]: 218 nM. On the same count and under the same terms, in the case of `COCc1ccc(C(C)n2cc(-c3cc(=O)[nH]c(C)n3)cn2)c(F)c1` (single isomer, unassigned) [Example 98, (S)- or (R)-6-(1-(1-(2-fluoro-4-(methoxymethyl)phenyl)ethyl)-1H-pyrazol-4-yl)-2-methylpyrimidin-4(3H)-one] it was over 2970 nM; in that of `Cc1nc(-c2cnn(C(C)c3ccc(OC(F)F)cc3F)c2)cc(=O)[nH]1` (single isomer, unassigned) [Example 88, (S)- or (R)-6-(1-(1-(4-(difluoromethoxy)-2-fluorophenyl)ethyl)-1H-pyrazol-4-yl)-2-methylpyrimidin-4(3H)-one], 162 nM. On to `Cc1nc(-c2cnn(C(C)c3ccc(C(F)(F)F)cc3C(F)(F)F)c2)cc(=O)[nH]1` (single isomer, unassigned) [Example 145, (S)- or (R)-6-(1-(1-(2,4-bis(trifluoromethyl)phenyl)ethyl)-1H-pyrazol-4-yl)-2-methylpyrimidin-4(3H)-one], for which the Ki was 6810 nM. The same measure, in the same setting: in the case of `Cc1nc(-n2cc(CN3CCC(C(F)(F)F)CC3)cn2)cc(=O)[nH]1` [Example 32, 2-Methyl-6-(4-((4-(trifluoromethyl)piperidin-1-yl)methyl)-1H-pyrazol-1-yl)pyrimidin-4(3H)-one] it was 19300 nM.

The experiment is the same for the next values; noted with them: Lab B; read-out: Rhesus PDE2 Ki (nM) Lab B.
As to `Cc1nc(-c2cnn(C(C)c3ccc(OC(F)(F)F)cc3F)c2)cc(=O)[nH]1` (single isomer, unassigned) [Example 59, (S)- or (R)-6-(1-(1-(2-fluoro-4-(trifluoromethoxy)phenyl)ethyl)-1H-pyrazol-4-yl)-2-methylpyrimidin-4(3H)-one], the inhibition constant Ki turned out to be 469 nM. For the molecule `Cc1nc(-c2cnn(C(C)c3ccccc3)c2)cc(=O)[nH]1` (stereo not shown) [Example 156, 2-methyl-6-(1-(1-phenylethyl)-1H-pyrazol-4-yl)pyrimidin-4(3H)-one], the Ki was found to be 4890 nM. On the same count and under the same terms, the same measure for `Cc1nc(-c2ccn(C(C)c3cccc(C(F)(F)F)c3)n2)cc(=O)[nH]1` (stereo not shown) [Example 159, 2-methyl-6-(1-(1-(3-(trifluoromethyl)phenyl)ethyl)-1H-pyrazol-3-yl)pyrimidin-4(3H)-one]: 25700 nM. The same measure, in the same setting: the same measure for `Cc1nc(-c2cc(C(C)c3ccc(C(F)(F)F)cc3)nn2C)cc(=O)[nH]1` (single isomer, unassigned) [Example 131, (R)- or (S)-2-methyl-6-(1-methyl-3-(1-(4-(trifluoromethyl)phenyl)ethyl)-1H-pyrazol-5-yl)pyrimidin-4(3H)-one]: over 1000 nM; for `COC(=O)c1ccc(C(C)n2cc(-c3cc(=O)[nH]c(C)n3)cn2)cc1` (stereo not shown) [Example 155, methyl 4-(1-(4-(2-methyl-6-oxo-1,6-dihydropyrimidin-4-yl)-1H-pyrazol-1-yl)ethyl)benzoate]: 3830 nM; for `Cc1nc(-c2ccn(C(C)c3ccccc3)n2)cc(=O)[nH]1` (stereo not shown) [Example 158, 2-methyl-6-(1-(1-phenylethyl)-1H-pyrazol-3-yl)pyrimidin-4(3H)-one]: 18500 nM. On the same count and under the same terms, the same measure for `Cc1nc(-n2cc(C(C)c3ccc(OC(F)(F)F)cc3C)cn2)cc(=O)[nH]1` (stereo not shown) [Example 55, 2-methyl-6-(4-(1-(2-methyl-4-(trifluoromethoxy)phenyl)ethyl)-1H-pyrazol-1-yl)pyrimidin-4(3H)-one]: 467 nM; for `COc1cc(C(F)(F)F)ccc1[C@@H](C)n1cc(-c2cc(=O)[nH]c(C)n2)cn1` (single isomer, unassigned) [Example 1]: 301 nM.

On to `Cc1nc(-c2ccn(C(C)c3ccc(OC(F)(F)F)cc3)n2)cc(=O)[nH]1` (stereo not shown) [Example 75, 2-methyl-6-(1-(1-(4-(trifluoromethoxy)phenyl)ethyl)-1H-pyrazol-3-yl)pyrimidin-4(3H)-one], for which the Ki stood at 3250 nM. On the same count and under the same terms, the same measure for `CNC(c1ccc(C(F)(F)F)cc1)c1cnn(-c2cc(=O)[nH]c(C)n2)c1` (stereo not shown) [Example 31, 2-Methyl-6-(4-((methylamino)(4-(trifluoromethyl)phenyl)methyl)-1H-pyrazol-1-yl)pyrimidin-4(3H)-one]: 488 nM; for `Cc1nc(-c2ccn(C(C)c3ccc(F)cc3)n2)cc(=O)[nH]1` (stereo not shown) [Example 161, 6-(1-(1-(4-fluorophenyl)ethyl)-1H-pyrazol-3-yl)-2-methylpyrimidin-4(3H)-one]: 13900 nM; for `Cc1nc(-n2cc(CN3CCC(C(F)(F)F)CC3)cn2)cc(=O)[nH]1` [Example 32, 2-Methyl-6-(4-((4-(trifluoromethyl)piperidin-1-yl)methyl)-1H-pyrazol-1-yl)pyrimidin-4(3H)-one]: 49300 nM.

With `Cc1nc(-c2cnn(C(C)c3ccc(C(F)(F)F)cc3C)c2)cc(=O)[nH]1` (single isomer, unassigned) [Example 56, (R)- or (S)-2-methyl-6-(1-(1-(2-methyl-4-(trifluoromethyl)phenyl)ethyl)-1H-pyrazol-4-yl)pyrimidin-4(3H)-one], the inhibitory constant (Ki) turned out to be 314 nM.

For the molecule `Cc1nc(-c2cc([C@@H](C)c3ccc(C(F)(F)F)cc3)n(C)n2)cc(=O)[nH]1` (single isomer, unassigned) [Example 26], the Ki came to 1140 nM.

The values above are taken from US10287269B2, “Pyrazolyl pyrimidinone compounds as PDE2 inhibitors” (Merck Sharp & Dohme Corp., priority 2015, dated 2019).
